Experiment [1] has as its target T1, human TLR8 (Homo sapiens, UniProt Q9NR97).
T1 construct: host or cells: HEK-Blue cells
T1 sequence (Q9NR97 27-1041): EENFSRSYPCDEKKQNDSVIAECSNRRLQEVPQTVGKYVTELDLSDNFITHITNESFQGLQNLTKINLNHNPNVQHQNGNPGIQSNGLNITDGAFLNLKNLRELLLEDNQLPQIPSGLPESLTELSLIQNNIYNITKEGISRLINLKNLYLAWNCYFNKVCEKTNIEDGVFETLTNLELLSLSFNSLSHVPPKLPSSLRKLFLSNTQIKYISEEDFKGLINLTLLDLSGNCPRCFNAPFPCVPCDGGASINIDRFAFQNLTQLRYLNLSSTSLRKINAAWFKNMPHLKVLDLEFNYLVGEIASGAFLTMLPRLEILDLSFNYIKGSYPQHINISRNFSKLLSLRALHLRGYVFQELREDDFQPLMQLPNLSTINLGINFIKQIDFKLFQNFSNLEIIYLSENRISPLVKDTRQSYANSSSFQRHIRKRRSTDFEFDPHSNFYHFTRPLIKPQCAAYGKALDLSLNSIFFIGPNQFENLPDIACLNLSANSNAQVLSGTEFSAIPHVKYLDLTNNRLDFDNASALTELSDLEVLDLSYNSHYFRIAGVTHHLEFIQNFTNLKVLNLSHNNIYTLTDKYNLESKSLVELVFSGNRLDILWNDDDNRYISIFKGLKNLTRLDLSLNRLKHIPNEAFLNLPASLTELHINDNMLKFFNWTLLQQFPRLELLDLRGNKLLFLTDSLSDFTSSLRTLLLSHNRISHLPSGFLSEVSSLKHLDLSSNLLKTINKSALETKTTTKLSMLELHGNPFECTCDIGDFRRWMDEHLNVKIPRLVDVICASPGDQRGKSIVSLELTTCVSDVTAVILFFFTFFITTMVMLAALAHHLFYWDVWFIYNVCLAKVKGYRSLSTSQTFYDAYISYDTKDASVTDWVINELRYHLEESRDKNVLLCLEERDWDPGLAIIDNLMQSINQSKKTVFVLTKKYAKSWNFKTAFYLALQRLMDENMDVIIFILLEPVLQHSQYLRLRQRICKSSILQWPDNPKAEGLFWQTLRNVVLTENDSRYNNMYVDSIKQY
Kind of experiment: TLR8 inhibition reporter assay (HEK-Blue SEAP). The format is cell-based. The note with it: HEK-Blue cells overexpressing human TLR8, R848 15.9 μM, 22 hour incubation. A digest of the protocol: (§1)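 Screening used HEK-Blue cells overexpressing one human TLR (7, 8 or 9) and an IFN-β minimal promoter–NF-κB/AP-1 SEAP construct. Stimulation lasted 22 h at 37 °C with receptor-specific agonist: gardiquimod, R848 or ODN2006 at 7.5 μM, 15.9 μM and 5 nM.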
In general terms: Reporter assays use an easily measured gene product as a stand-in for the process of interest.

For experiment [2], the target named is T2, human TLR9 (Homo sapiens, UniProt Q9NR96).
T2 construct: host or cells: HEK-Blue cells
T2 sequence (Q9NR96 26-1032): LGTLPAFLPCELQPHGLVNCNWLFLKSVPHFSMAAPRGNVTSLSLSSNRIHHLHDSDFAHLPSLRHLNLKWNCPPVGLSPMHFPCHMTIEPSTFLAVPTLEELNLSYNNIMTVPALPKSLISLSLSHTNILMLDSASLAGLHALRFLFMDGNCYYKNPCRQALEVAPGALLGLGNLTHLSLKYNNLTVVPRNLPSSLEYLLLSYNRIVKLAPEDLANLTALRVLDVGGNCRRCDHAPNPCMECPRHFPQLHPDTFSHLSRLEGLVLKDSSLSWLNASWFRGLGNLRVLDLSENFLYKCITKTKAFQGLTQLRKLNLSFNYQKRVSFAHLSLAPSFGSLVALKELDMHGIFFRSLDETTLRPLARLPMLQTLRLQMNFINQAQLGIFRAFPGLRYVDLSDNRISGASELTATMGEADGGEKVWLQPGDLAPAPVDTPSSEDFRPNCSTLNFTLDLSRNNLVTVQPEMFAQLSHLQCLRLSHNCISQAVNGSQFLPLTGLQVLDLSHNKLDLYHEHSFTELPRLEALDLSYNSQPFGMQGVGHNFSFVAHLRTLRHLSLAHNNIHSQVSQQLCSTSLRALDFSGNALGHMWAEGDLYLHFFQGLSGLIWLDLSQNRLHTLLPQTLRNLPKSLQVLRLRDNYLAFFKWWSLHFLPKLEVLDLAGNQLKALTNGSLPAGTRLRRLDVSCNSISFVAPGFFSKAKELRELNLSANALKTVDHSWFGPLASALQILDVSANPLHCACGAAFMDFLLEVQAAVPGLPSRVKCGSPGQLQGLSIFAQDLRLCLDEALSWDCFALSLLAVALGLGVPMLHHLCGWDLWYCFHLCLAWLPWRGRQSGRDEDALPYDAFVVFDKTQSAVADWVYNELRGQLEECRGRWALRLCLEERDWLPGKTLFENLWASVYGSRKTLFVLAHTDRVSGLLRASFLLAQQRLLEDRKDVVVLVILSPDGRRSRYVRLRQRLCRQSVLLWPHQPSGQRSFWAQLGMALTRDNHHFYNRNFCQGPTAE
Nature of the experiment: TLR9 inhibition reporter assay (HEK-Blue SEAP). In kind it is cell-based. The note with it: HEK-Blue cells overexpressing human TLR9, ODN2006 5 nM, 22 hour incubation. Put shortly:
as §1

Molecules are shown by their SMILES.

As a reminder, the IC50 is the concentration at which inhibition is half-maximal.

`COc1cc(-c2ccc3c(c2)[nH]c(=O)n3C2CCN(C)CC2)cn2ncnc12` [Example 74, 5-(8-methoxy-[1,2,4]triazolo[1,5-a]pyridin-6-yl)-1-(1-methylpiperidin-4-yl)-1,3-dihydro-2H-benzo[d]imidazol-2-one]: the concentration for half-maximal inhibition (IC50) is greater than 3130 nM in experiment [1] and 365 nM in experiment [2].
On the same counts, the results for `CCCN1CCC[C@@H](n2c(=O)[nH]c3cc(-c4cc(C)c5ncnn5c4)c(C)cc32)C1` [Example 42, (R)-6-methyl-5-(8-methyl-[1,2,4]triazolo[1,5-a]pyridin-6-yl)-1-(1-propylpiperidin-3-yl)-1,3-dihydro-2H-benzo[d]imidazol-2-one] are 29.5 nM and 10500 nM.
On the same counts, the results for `COc1cc(-c2cc3[nH]c(=O)n([C@@H]4CCCN(CC(C)C)C4)c3cc2C)cn2ncnc12` [Example 56, (R)-1-(1-isobutylpiperidin-3-yl)-5-(8-methoxy-[1,2,4]triazolo[1,5-a]pyridin-6-yl)-6-methyl-1,3-dihydro-2H-benzo[d]imidazol-2-one] are 11.2 nM and 4810 nM.
On to `COc1cc(-c2cc3[nH]c(=O)n([C@H]4CC[C@@H](NC5CCCC5)CC4)c3cc2C)cn2ncnc12` [Example 65, 1-((1s,4s)-4-(cyclopentylamino)cyclohexyl)-5-(8-methoxy-[1,2,4]triazolo[1,5-a]pyridin-6-yl)-6-methyl-1,3-dihydro-2H-benzo[d]imidazol-2-one], for which the IC50 in experiment [1] turned out to be 1.7 nM; in experiment [2], 3440 nM.
Taken in the same sequence, the figures for `CCC(CC)CN1CCC(n2c(=O)[nH]c3cc(-c4cc(OC)c5ncnn5c4)ccc32)CC1` [Example 75, 1-(1-(2-ethylbutyl)piperidin-4-yl)-5-(8-methoxy-[1,2,4]triazolo[1,5-a]pyridin-6-yl)-1,3-dihydro-2H-benzo[d]imidazol-2-one] were 1490 nM and 2780 nM.
Taken in the same sequence, the figures for `CCC(CC)CN1CCC[C@@H](n2c(=O)[nH]c3cc(-c4cc(C)c5ncnn5c4)c(C)cc32)C1` [Example 45, (R)-1-(1-(2-ethylbutyl)piperidin-3-yl)-6-methyl-5-(8-methyl-[1,2,4]triazolo[1,5-a]pyridin-6-yl)-1,3-dihydro-2H-benzo[d]imidazol-2-one] were 48.1 nM and 3030 nM.
Regarding `COc1cc(-c2cc3[nH]c(=O)n([C@H]4CC[C@@H](NC5COC5)CC4)c3cc2C)cn2ncnc12` [Example 59, 5-(8-methoxy-[1,2,4]triazolo[1,5-a]pyridin-6-yl)-6-methyl-1-((1s,4s)-4-(oxetan-3-ylamino)cyclohexyl)-1,3-dihydro-2H-benzo[d]imidazol-2-one], the IC50 in experiment [1] came out at 18.8 nM; in experiment [2] it was 7570 nM.
On the same counts, the results for `COc1cc(-c2ccc3c(c2)[nH]c(=O)n3C2CCN(CC3CC3)CC2)cn2ncnc12` [Example 79, 1-(1-(cyclopropylmethyl)piperidin-4-yl)-5-(8-methoxy-[1,2,4]triazolo[1,5-a]pyridin-6-yl)-1,3-dihydro-2H-benzo[d]imidazol-2-one] are 1550 nM and 3900 nM.
On the same counts, the results for `CCC(C)N[C@H]1CC[C@@H](n2c(=O)[nH]c3cc(-c4cc(C)c5ncnn5c4)c(C)cc32)CC1` (some centres unmarked) [Example 34, 1-((1s,4s)-4-(sec-butylamino)cyclohexyl)-6-methyl-5-(8-methyl-[1,2,4]triazolo[1,5-a]pyridin-6-yl)-1,3-dihydro-2H-benzo[d]imidazol-2-one] are 4.65 nM and 3340 nM.
Taken in the same sequence, the figures for `Cc1cc2c(cc1-c1cc(C)c3ncnn3c1)[nH]c(=O)n2[C@H]1CCCN(CC(=O)N(C)C)C1` [Example 93, (S)—N,N-dimethyl-2-(3-(6-methyl-5-(8-methyl-[1,2,4]triazolo[1,5-a]pyridin-6-yl)-2-oxo-2,3-dihydro-1H-benzo[d]imidazol-1-yl)piperidin-1-yl)acetamide] were 105 nM and 12600 nM.

The record behind these values is US12187723B2 (BRISTOL-MYERS SQUIBB COMPANY, priority 2019, dated 2025).
